Where two headings read alike, the source gives them in different places.
Assay: Plasma pharmacokinetics, Arm II (oral BID), phase 1 trial
Type: in vivo, human
Conditions: for half-life: read-out: t1/2 (harmonic mean) (converted); for Cmax: read-out: Cmax
Method: Pharmacokinetics of ilorasertib were evaluated in the dose-escalation cohort on blood samples that were collected on cycle 1 days 1 and 15. Parameters determined: Cmax, time to Cmax (Tmax), terminal phase elimination half-life (t1/2), clearance, apparent oral clearance (CL/F), and area under the plasma concentration-time curve from time 0 to time of last measurable concentration (AUCt) and from time 0 to infinity (AUC∞). For Arm I, blood samples were collected prior to dosing and at 0.5, 1, 2, 3, 4, 6, 8, 10 or 12, and 24 h after dosing on cycle 1 days 1 and 15; of note, for institutions not able to collect the 10- or 12-h post-dose sample, the 24-h sample was replaced with 22-h and 28-h post-dose samples. In Arm II, for the first dose, blood samples were collected pre-dose and at 1, 2, 3, and 4 h post-dose on cycle 1 days 1 and 15; for the second dose, samples were collected pre-dose and at 1, 2, 3, 4, 18, and 24 h after second dose on cycle 1 days 1 and 15. In Arm III, blood samples were collected prior to infusion, at 1 h 55 min (just before end of infusion), and at 0.5, 1, 2, 4, 6, 8, 10, and 24 h after end of infusion on cycle 1 days 1 and 15; here also, for institutions not able to collect the 8-h or 10-h after-end-of-infusion samples, the 24-h sample was replaced with 22-h and 28-h post-dose samples. The liquid chromatography (LC)-mass spectrometry (MS)/MS method was developed and validated in the Bioanalysis Department of AbbVie. Fifty microliter of human plasma (K2EDTA as anticoagulant) was fortified with 300 μL of deuterium-stable labelled internal standard and mixed well. A HybridSPE precipitation plate (50 mg/96 wells, Supelco Analytical, Munich, Germany) was used to directly load and elute (under slight vacuum) the fortified samples into a clean collection plate. Samples were dried before reconstitution with 100 μL of 20/80 (v/v) acetonitrile/water, and injected for LC-MS/MS analysis. A Halo C8 (Wilmington, DE, USA; 2.7 μm, 2.1 × 30 mm) was used on an Agilent 1290 Infinity UPLC pump (Agilent Technologies, Santa Clara, CA) to carry out the separation. An isocratic condition with 25/75/0.1 (v/v/v) acetonitrile/water/98% formic acid was used as the mobile phase. The flow rate was set to be 0.6 mL/min. An MPS 3 C ([…] Ruhr, Germany) autosampler was used to introduce samples onto the UPLC system. An API 4000 mass spectrometer (Applied Biosystems, Foster City, CA) was used in the multiple reactions monitoring mode for the detection and quantitation of analyte. Descriptive statistics were used for demographic variables. The numbers and percentages of patients with treatment-emergent AEs (TEAEs) were tabulated using the Medical Dictionary for Regulatory Activities version 16.0 system organ class and preferred term, and further classified according to CTCAE version 4.0 criteria. The safety data set included all patients who received one or more doses of ilorasertib. The pharmacokinetic data set included all patients who received one or more doses of ilorasertib and had one or more pharmacokinetic samples. Values for pharmacokinetic parameters were determined using non-compartmental methods, with data analysed separately for each arm. A repeated measures analysis was performed for Tmax and dose-normalised Cmax, AUCt, and AUC∞. The model included random effects for patient and fixed effects for dose level, day, and the interaction of dose level and day. To assess effects of exposure on pharmacodynamic biomarkers, Cmax was employed as the directly measured marker of exposure for the rapid changes in DBP and PlGF pre-steady-state, while AUC∞ reflected exposure variability at the time of post-multiple-dose skin biopsy. Descriptive statistics were used to summarise ECOG performance status. The efficacy data set included all patients who received one or more doses of ilorasertib.

[1] = human, plasma, po, 40 mg, Arm II PO BID 40 mg, day 1, N=2, mean (individual)
[2] = human, plasma, po, 40 mg, Arm II PO BID 40 mg, day 1, N=3
[3] = human, plasma, po, 40 mg, Arm II PO BID 40 mg, day 15, N=3
[4] = human, plasma, po, 60 mg, Arm II PO BID 60 mg, day 1, N=3
[5] = human, plasma, po, 60 mg, Arm II PO BID 60 mg, day 15, N=1
[6] = human, plasma, po, 60 mg, Arm II PO BID 60 mg, day 15, N=3
[7] = human, plasma, po, 90 mg, Arm II PO BID 90 mg, day 1, N=2, mean (individual)
[8] = human, plasma, po, 90 mg, Arm II PO BID 90 mg, day 15, N=3
[9] = human, plasma, po, 130 mg, Arm II PO BID 130 mg, day 1, N=3
[10] = human, plasma, po, 130 mg, Arm II PO BID 130 mg, day 1, N=4
[11] = human, plasma, po, 130 mg, Arm II PO BID 130 mg, day 15, N=1
[12] = human, plasma, po, 130 mg, Arm II PO BID 130 mg, day 15, N=3
[13] = human, plasma, po, 190 mg, Arm II PO BID 190 mg, day 15, N=2, mean (individual)
[14] = human, plasma, po, 190 mg, Arm II PO BID 190 mg, day 15, N=5
[15] = human, plasma, po, 230 mg, Arm II PO BID 230 mg, day 1, N=2, mean (individual)
[16] = human, plasma, po, 230 mg, Arm II PO BID 230 mg, day 1, N=3
[17] = human, plasma, po, 230 mg, Arm II PO BID 230 mg, day 15, N=1
[18] = human, plasma, po, 230 mg, Arm II PO BID 230 mg, day 15, N=4
[19] = human, plasma, po, 340 mg, Arm II PO BID 340 mg, day 1, N=1
[20] = human, plasma, po, 340 mg, Arm II PO BID 340 mg, day 1, N=3
[21] = human, plasma, po, 340 mg, Arm II PO BID 340 mg, day 15, N=1

## Nc1ncc(-c2cnn(CCO)c2)c2scc(-c3ccc(NC(=O)Nc4cccc(F)c4)cc3)c12 [ilorasertib, Ilorasertib]
Arm II, oral administration in two divided doses, versus Arm I
  Tmax: delayed by several hours
[1]
  AUC(0-inf): 3990 ng·h/mL
  half-life: 11 h
[2]
  AUC(0-t): 3720 ± 1640 ng·h/mL
  Cmax: 250 ± 120 ng/mL
human, plasma, po, 40 mg, Arm II PO BID 40 mg, day 1, N=3, read-out: Tmax
  Tmax: 7.3 ± 3.8 h
[3]
  AUC(0-t): 3750 ± 2050 ng·h/mL
  Cmax: 190 ± 110 ng/mL
human, plasma, po, 40 mg, Arm II PO BID 40 mg, day 15, N=3, read-out: Tmax
  Tmax: 10 h
[4]
  AUC(0-t): 5450 ± 1460 ng·h/mL
  Cmax: 380 ± 140 ng/mL
human, plasma, po, 60 mg, Arm II PO BID 60 mg, day 1, N=3, read-out: Tmax
  Tmax: 5.7 ± 3.8 h
[5]
  AUC(0-inf): 5430 ng·h/mL
  half-life: 11.8 h
[6]
  AUC(0-t): 2920 ± 710 ng·h/mL
  Cmax: 230 ± 60 ng/mL
human, plasma, po, 60 mg, Arm II PO BID 60 mg, day 15, N=3, read-out: Tmax
  Tmax: 4.8 ± 2.8 h
[7]
  AUC(0-inf): 4030 ng·h/mL
  half-life: 10.1 h
human, plasma, po, 90 mg, Arm II PO BID 90 mg, day 1, N=3
  AUC(0-t): 3920 ± 1530 ng·h/mL
human, plasma, po, 90 mg, Arm II PO BID 90 mg, day 1, N=3, read-out: Tmax
  Tmax: 9 ± 1 h
human, plasma, po, 90 mg, Arm II PO BID 90 mg, day 15, N=2, mean (individual)
  AUC(0-inf): 5330 ng·h/mL
[8]
  AUC(0-t): 4060 ± 1510 ng·h/mL
  Cmax: 320 ± 100 ng/mL
human, plasma, po, 90 mg, Arm II PO BID 90 mg, day 15, N=3, read-out: Tmax
  Tmax: 7.6 ± 5.4 h
[9]
  AUC(0-inf): 6530 ± 4460 ng·h/mL
  half-life: 18.6 ± 17.6 h
[10]
  AUC(0-t): 5070 ± 3180 ng·h/mL
  Cmax: 600 ± 390 ng/mL
human, plasma, po, 130 mg, Arm II PO BID 130 mg, day 1, N=4, read-out: Tmax
  Tmax: 7.5 ± 1.7 h
[11]
  AUC(0-inf): 3960 ng·h/mL
  half-life: 7.5 h
[12]
  AUC(0-t): 2400 ± 1290 ng·h/mL
  Cmax: 260 ± 280 ng/mL
human, plasma, po, 130 mg, Arm II PO BID 130 mg, day 15, N=3, read-out: Tmax
  Tmax: 11 ± 11.5 h
human, plasma, po, 190 mg, Arm II PO BID 190 mg, day 1, N=4
  AUC(0-inf): 17800 ± 11300 ng·h/mL
human, plasma, po, 190 mg, Arm II PO BID 190 mg, day 1, N=7
  Cmax: 540 ± 280 ng/mL
human, plasma, po, 190 mg, Arm II PO BID 190 mg, day 1, N=7, read-out: Tmax
  Tmax: 10.2 ± 6.7 h
[13]
  AUC(0-inf): 10700 ng·h/mL
  half-life: 8.4 h
[14]
  AUC(0-t): 6690 ± 5220 ng·h/mL
  Cmax: 630 ± 380 ng/mL
human, plasma, po, 190 mg, Arm II PO BID 190 mg, day 15, N=5, read-out: Tmax
  Tmax: 13.2 ± 10.2 h
[15]
  AUC(0-inf): 9140 ng·h/mL
  half-life: 9 h
[16]
  AUC(0-t): 10100 ± 3620 ng·h/mL
  Cmax: 700 ± 230 ng/mL
human, plasma, po, 230 mg, Arm II PO BID 230 mg, day 1, N=3, read-out: Tmax
  Tmax: 8.7 ± 1.2 h
[17]
  AUC(0-inf): 13000 ng·h/mL
  half-life: 8 h
[18]
  AUC(0-t): 11200 ± 4340 ng·h/mL
  Cmax: 790 ± 460 ng/mL
human, plasma, po, 230 mg, Arm II PO BID 230 mg, day 15, N=4, read-out: Tmax
  Tmax: 9.5 ± 0.6 h
[19]
  AUC(0-inf): 98800 ng·h/mL
  half-life: 39.6 h
[20]
  AUC(0-t): 39300 ± 14800 ng·h/mL
  Cmax: 2040 ± 870 ng/mL
human, plasma, po, 340 mg, Arm II PO BID 340 mg, day 1, N=3, read-out: Tmax
  Tmax: 15 ± 8 h
[21]
  AUC(0-t): 15700 ng·h/mL
  Cmax: 770 ng/mL
human, plasma, po, 340 mg, Arm II PO BID 340 mg, day 15, N=1, read-out: Tmax
  Tmax: 10 h
human, plasma, po, Arm II PO BID all doses, day 1, N=26, read-out: Tmax
  Tmax: 9.2 ± 5 h
human, plasma, po, Arm II PO BID all doses, day 15, N=22, read-out: Tmax
  Tmax: 9.7 ± 6.6 h

— publication PMC5931107, “Clinical pharmacodynamic/exposure characterisation of the multikinase inhibitor ilorasertib (ABT-348) in a phase 1 dose-escalation trial” (British Journal of Cancer, 2018)
